Laboratory results published in patent US4980377A, “1-(aminophenyl)-2-aminopropanone derivatives” (Laboratoire L. Lafon, priority 1984, dated 1990).
Where a name gives a salt, the structure may show the parent alone.

Tests used:
[1] = test system: gravid White New Zealand female rabbits; test: Teratogenicity in gravid White New Zealand rabbits; type: in vivo, rabbit; settings: day 5 to day 18 of gestation; for Affected foetuses, %: normal limit 1.5%
Description: The protocol used comprised administering to gravid White New Zealand female rabbits (weighing each about 2900-3000 grams before gestation) a daily dose of 0 (batch of control animals), 5,10 or 50 mg/kg of each product to be tested by gastrogavage from day 5 to day 18 of gestation, then carrying out a cesarean operation on day 29 of gestation in order to enumerate:
(i) the total number of foestuses, and
(ii) the total number of foestuses presenting at least one malformation.
To appreciate the results of such a protocol it must be noted that natural malformations may occur. Statistically, the percentage of foetuses presenting at least one malformation in any control batch of gravid White New Zealand female rabbits is lower than or equal to 1.5% with respect to the total number of foetuses.
To be precise in this protocol a malformation comprises at least one of the following cases: articular limb blocade, anorous foetus, deviated tail, shorter tail, skull deformation, exemcephalia.

CNS = test: Neuropsychopharmacological profile as a whole; type: in vivo, mice and rats; settings: conclusion of the tests
Description: In the neuropsychopharmacological study which follows, a solution of CRL 41 153 in distilled water (pH 1.5) was administered intraperitoneally in a volume of 20 ml/kg to male mice and 5 ml/kg to male rats.

[2] = pH of solutions in distilled water; type: physicochemical
Description: The neuropsychopharmacological study was undertaken according to the procedures described above for CRL 41 153, CRL 41 213 being adminstered intraperitoneally, in solution in distilled water, in a volume of 20 ml/kg to male mice and a volume of 5 ml/kg to male rats, and the pH of the injected solution varying with the concentration of CRL 41 213 according to the data given in Table II below.

mice = test: Interaction with barbital; type: in vivo, mouse; settings: i.p., barbital 220 mg/kg
Description: Half an hour after the administration of CRL 41 153, groups of 10 mice receive an intraperitoneal injection of barbital (220 mg/kg).

CC(C)NCCCC(=O)c1ccc(N)cc1 [A 1, reference compound]
Affected foetuses, number ([1]; 10 mg/kg daily): 4 | Total foetuses (live) ([1]; 10 mg/kg daily): 87 | Affected foetuses, % ([1]; 10 mg/kg daily): 4.59%

CC(C)(C)NCCCC(=O)c1ccc(N)cc1 [A 2, reference compound]
Affected foetuses, number ([1]; 10 mg/kg daily): 4 | Total foetuses (live) ([1]; 10 mg/kg daily): 85 | Affected foetuses, % ([1]; 10 mg/kg daily): 4.70%

CC(C)NCCCC(=O)c1cc(Cl)c(N)c(Cl)c1 [A 3, reference compound]
Affected foetuses, number ([1]; 10 mg/kg daily): 5 | Total foetuses (live) ([1]; 10 mg/kg daily): 82 | Affected foetuses, % ([1]; 10 mg/kg daily): 6.09%

Nc1ccc(C(=O)CCCN2CCCCC2)cc1 [A 5, reference compound]
Affected foetuses, number ([1]; 5 mg/kg daily): 3 | Total foetuses (live) ([1]; 5 mg/kg daily): 81 | Affected foetuses, % ([1]; 5 mg/kg daily): 3.70% | Affected foetuses, number ([1]; 10 mg/kg daily): 4 | Total foetuses (live) ([1]; 10 mg/kg daily): 87 | Affected foetuses, % ([1]; 10 mg/kg daily): 4.59%

Nc1ccc(C(=O)CCCN2CCCC2)cc1 [A 6, reference compound]
Affected foetuses, number ([1]; 5 mg/kg daily): 0 | Total foetuses (live) ([1]; 5 mg/kg daily): 89 | Affected foetuses, % ([1]; 5 mg/kg daily): 0% | Affected foetuses, number ([1]; 10 mg/kg daily): 5 | Total foetuses (live) ([1]; 10 mg/kg daily): 86 | Affected foetuses, % ([1]; 10 mg/kg daily): 5.81%

CCNCCC(=O)c1ccc(N)cc1 [A 7, reference compound]
Affected foetuses, number ([1]; 5 mg/kg daily): 1 | Total foetuses (live) ([1]; 5 mg/kg daily): 80 | Affected foetuses, % ([1]; 5 mg/kg daily): 1.25% | Affected foetuses, number ([1]; 10 mg/kg daily): 4 | Total foetuses (live) ([1]; 10 mg/kg daily): 79 | Affected foetuses, % ([1]; 10 mg/kg daily): 5.06%

CN(C)CCC(=O)c1ccc(N)cc1 [A 8, reference compound]
Affected foetuses, number ([1]; 10 mg/kg daily): 5 | Total foetuses (live) ([1]; 10 mg/kg daily): 81 | Affected foetuses, % ([1]; 10 mg/kg daily): 6.17%

Nc1ccc(C(=O)CCN2CCOCC2)cc1 [A 9, reference compound]
Affected foetuses, number ([1]; 5 mg/kg daily): 1 | Total foetuses (live) ([1]; 5 mg/kg daily): 86 | Affected foetuses, % ([1]; 5 mg/kg daily): 1.16% | Affected foetuses, number ([1]; 10 mg/kg daily): 0 | Total foetuses (live) ([1]; 10 mg/kg daily): 94 | Affected foetuses, % ([1]; 10 mg/kg daily): 0% | Affected foetuses, number ([1]; 50 mg/kg daily): 6 | Total foetuses (live) ([1]; 50 mg/kg daily): 82 | Affected foetuses, % ([1]; 50 mg/kg daily): 7.31%

Nc1ccc(C(=O)CCN2CCCCC2)cc1 [A 10, reference compound]
Affected foetuses, number ([1]; 10 mg/kg daily): 4 | Total foetuses (live) ([1]; 10 mg/kg daily): 78 | Affected foetuses, % ([1]; 10 mg/kg daily): 5.12%

CN1CCN(CCC(=O)c2ccc(N)cc2)CC1 [A 11, reference compound]
Affected foetuses, number ([1]; 10 mg/kg daily): 6 | Total foetuses (live) ([1]; 10 mg/kg daily): 80 | Affected foetuses, % ([1]; 10 mg/kg daily): 7.50%

Nc1ccc(C(=O)CCNC2CC2)cc1 [A 12, reference compound]
Affected foetuses, number ([1]; 5 mg/kg daily): 2 | Total foetuses (live) ([1]; 5 mg/kg daily): 75 | Affected foetuses, % ([1]; 5 mg/kg daily): 2.66%

Nc1ccc(C(=O)CCN2CCSCC2)cc1 [A 13, reference compound]
Affected foetuses, number ([1]; 10 mg/kg daily): 12 | Total foetuses (live) ([1]; 10 mg/kg daily): 43 | Affected foetuses, % ([1]; 10 mg/kg daily): 27.90%

CC(C)NCC(=O)c1ccc(N)cc1 [A 14, reference compound]
Affected foetuses, number ([1]; 10 mg/kg daily): 3 | Total foetuses (live) ([1]; 10 mg/kg daily): 76 | Affected foetuses, % ([1]; 10 mg/kg daily): 3.94%

CC(C)NCC(=O)c1cccc(N)c1 [A 15, reference compound]
Affected foetuses, number ([1]; 10 mg/kg daily): 14 | Total foetuses (live) ([1]; 10 mg/kg daily): 52 | Affected foetuses, % ([1]; 10 mg/kg daily): 26.92%

Nc1ccc(C(=O)CN2CCOCC2)cc1 [A 16, 1-(4-aminophenyl)-2-morpholinylethanone, reference compound]
Affected foetuses, number ([1]; 5 mg/kg daily): 3 | Total foetuses (live) ([1]; 5 mg/kg daily): 81 | Affected foetuses, % ([1]; 5 mg/kg daily): 3.70% | Affected foetuses, number ([1]; 10 mg/kg daily): 13 | Total foetuses (live) ([1]; 10 mg/kg daily): 50 | Affected foetuses, % ([1]; 10 mg/kg daily): 26.0%

Nc1cccc(C(=O)CN2CCOCC2)c1 [A 17, reference compound]
Affected foetuses, number ([1]; 5 mg/kg daily): 2 | Total foetuses (live) ([1]; 5 mg/kg daily): 77 | Affected foetuses, % ([1]; 5 mg/kg daily): 2.59% | Affected foetuses, number ([1]; 10 mg/kg daily): 11 | Total foetuses (live) ([1]; 10 mg/kg daily): 46 | Affected foetuses, % ([1]; 10 mg/kg daily): 23.91%

Nc1ccc(C(=O)CN2CCCCC2)cc1 [A 18, reference compound]
Affected foetuses, number ([1]; 5 mg/kg daily): 4 | Total foetuses (live) ([1]; 5 mg/kg daily): 80 | Affected foetuses, % ([1]; 5 mg/kg daily): 5.0% | Affected foetuses, number ([1]; 10 mg/kg daily): 10 | Total foetuses (live) ([1]; 10 mg/kg daily): 51 | Affected foetuses, % ([1]; 10 mg/kg daily): 19.60%

Nc1cccc(C(=O)CN2CCCCC2)c1 [A 19, reference compound]
Affected foetuses, number ([1]; 10 mg/kg daily): 3 | Total foetuses (live) ([1]; 10 mg/kg daily): 62 | Affected foetuses, % ([1]; 10 mg/kg daily): 4.83%

Nc1ccc(C(=O)CN2CCCC2)cc1 [A 20, reference compound]
Affected foetuses, number ([1]; 10 mg/kg daily): 5 | Total foetuses (live) ([1]; 10 mg/kg daily): 74 | Affected foetuses, % ([1]; 10 mg/kg daily): 8.10%

Nc1cccc(C(=O)CN2CCCC2)c1 [A 21, reference compound]
Affected foetuses, number ([1]; 10 mg/kg daily): 4 | Total foetuses (live) ([1]; 10 mg/kg daily): 78 | Affected foetuses, % ([1]; 10 mg/kg daily): 5.12%

CCC1CCCCN1C(C)C(=O)c1ccc(N)c(Br)c1 (stereo not drawn) [A 22, 1-(4-amino-3-bromophenyl)2-(2-ethylpiperidino)propanone, reference compound]
Affected foetuses, number ([1]; 10 mg/kg daily): 13 | Total foetuses (live) ([1]; 10 mg/kg daily): 46 | Affected foetuses, % ([1]; 10 mg/kg daily): 28.26%

CC(C(=O)c1ccc(N)cc1)N1CCN(C)CC1 (stereo not drawn) [CRL 41 243]
Antidepressant effects (overall) (CNS): modest antidepressant effects | Sedative effects (overall) (CNS): moderate sedative effects | pH ([2]; 0.1 g/liter in distilled water): 5.0 | pH ([2]; 0.2 g/liter in distilled water): 4.5 | pH ([2]; 0.4 g/liter in distilled water): 4.0 | pH ([2]; 0.8 g/liter in distilled water): 3.5 | pH ([2]; 3.2 g/liter in distilled water): 2.5 | pH ([2]; 6.4 g/liter in distilled water): 2.0 | pH ([2]; 25 g/liter in distilled water): 1.5 | pH ([2]; 50 g/liter in distilled water): 1.0 | pH ([2]; ≤0.05 g/liter in distilled water): 5.5 | Duration of the sleep induced by barbital (mice): at strong doses reduces the duration of the sleep induced by barbital | Affected foetuses, number ([1]; 50 mg/kg daily): 0 | Total foetuses (live) ([1]; 50 mg/kg daily): 87 | Affected foetuses, % ([1]; 50 mg/kg daily): 0%

CC(C)NC(C)C(=O)c1cccc(N)c1 (stereo not drawn) [CRL 41 255]
Affected foetuses, number ([1]; 10 mg/kg daily): 1 | Total foetuses (live) ([1]; 10 mg/kg daily): 89 | Affected foetuses, % ([1]; 10 mg/kg daily): 1.12%

CC(C(=O)c1cccc(N)c1)N(C)C (stereo not drawn) [CRL 41 260]
Affected foetuses, number ([1]; 10 mg/kg daily): 1 | Total foetuses (live) ([1]; 10 mg/kg daily): 87 | Affected foetuses, % ([1]; 10 mg/kg daily): 1.14%

CC(C(=O)c1cccc(N)c1)N1CCCCC1 (stereo not drawn) [CRL 41 263, 1-(3-aminophenyl)-2-piperidinopropanone dihydrochloride]
Affected foetuses, number ([1]; 10 mg/kg daily): 0 | Total foetuses (live) ([1]; 10 mg/kg daily): 92 | Affected foetuses, % ([1]; 10 mg/kg daily): 0%

CC(C(=O)c1cccc(N)c1)N1CCOCC1 (stereo not drawn) [CRL 41 268]
Affected foetuses, number ([1]; 10 mg/kg daily): 1 | Total foetuses (live) ([1]; 10 mg/kg daily): 91 | Affected foetuses, % ([1]; 10 mg/kg daily): 1.11%

CCCNC(C)C(=O)c1cccc(N)c1 (stereo not drawn) [CRL 41 278]
Affected foetuses, number ([1]; 10 mg/kg daily): 1 | Total foetuses (live) ([1]; 10 mg/kg daily): 92 | Affected foetuses, % ([1]; 10 mg/kg daily): 1.08%
